From patent publication US11498899B2, “Nitrone herbicides” (FMC Corporation, priority 2016, dated 2022)

How the values were obtained:
[1] = tested on: barnyardgrass (Echinochloa crus-galli); assay: Test A preemergence, visual injury rating 0-100 (0 no effect, 100 complete control); type: in vivo; conditions: for Barnyardgrass plant response rating: 0 to 100 scale (0 no effect, 100 complete control), approx. 10 days
[2] = tested on: foxtail, giant (giant foxtail, Setaria faberii); assay: Test A preemergence, visual injury rating 0-100; type: in vivo; conditions: for Foxtail, Giant plant response rating: 0 to 100 scale (0 no effect, 100 complete control), approx. 10 days
kochia (Kochia scoparia) [3] = assay: Test A preemergence, visual injury rating 0-100; type: in vivo; conditions: for Kochia plant response rating: 0 to 100 scale (0 no effect, 100 complete control), approx. 10 days
[4] = tested on: pigweed (Amaranthus retroflexus); assay: Test A preemergence, visual injury rating 0-100; type: in vivo; conditions: for Pigweed plant response rating: 0 to 100 scale (0 no effect, 100 complete control), approx. 10 days
[5] = tested on: ragweed (common ragweed, Ambrosia elatior); assay: Test A preemergence, visual injury rating 0-100; type: in vivo; conditions: for Ragweed plant response rating: 0 to 100 scale (0 no effect, 100 complete control), approx. 10 days
[6] = tested on: ryegrass, Italian (Italian ryegrass, Lolium multiflorum); assay: Test A preemergence, visual injury rating 0-100; type: in vivo; conditions: for Ryegrass, Italian plant response rating (0 to 100 scale): 500 g ai/ha; for Ryegrass, Italian plant response rating: 125 g ai/ha, 0 to 100 scale (0 no effect, 100 complete control), approx. 10 days
[7] = tested on: barnyardgrass (Echinochloa crus-galli); assay: Test A postemergence, visual injury rating 0-100; type: in vivo; conditions: 0 to 100 scale
[8] = tested on: blackgrass (Alopecurus myosuroides); assay: Test A postemergence, visual injury rating 0-100; type: in vivo; conditions: 0 to 100 scale
corn (Zea mays) = assay: Test A postemergence, visual injury rating 0-100; type: in vivo; conditions: 0 to 100 scale
[9] = tested on: foxtail, giant (giant foxtail, Setaria faberii); assay: Test A postemergence, visual injury rating 0-100; type: in vivo; conditions: 0 to 100 scale
[10] = tested on: galium (catchweed bedstraw, Galium aparine); assay: Test A postemergence, visual injury rating 0-100; type: in vivo; conditions: 0 to 100 scale
kochia (Kochia scoparia) [11] = assay: Test A postemergence, visual injury rating 0-100; type: in vivo; conditions: 0 to 100 scale
[12] = tested on: pigweed (Amaranthus retroflexus); assay: Test A postemergence, visual injury rating 0-100; type: in vivo; conditions: 0 to 100 scale
[13] = tested on: ragweed (common ragweed, Ambrosia elatior); assay: Test A postemergence, visual injury rating 0-100; type: in vivo; conditions: 0 to 100 scale
[14] = tested on: ryegrass, Italian (Italian ryegrass, Lolium multiflorum); assay: Test A postemergence, visual injury rating 0-100; type: in vivo; conditions: 0 to 100 scale
[15] = tested on: wheat (Triticum aestivum); assay: Test A postemergence, visual injury rating 0-100; type: in vivo; conditions: 0 to 100 scale
[16] = tested on: ducksalad (Heteranthera limosa); assay: Test B flooded paddy test, visual rating 0-100; conditions: Flood, 250 g ai/ha, applied to paddy water, rated after 13 to 15 days
[17] = tested on: barnyardgrass (Echinochloa crus-galli); assay: Test B flooded paddy test, visual rating 0-100; conditions: Flood, 250 g ai/ha, applied to paddy water, rated after 13 to 15 days
rice (Oryza sativa) = assay: Test B flooded paddy test, visual rating 0-100 (0 no effect, 100 complete control); conditions: Flood, 250 g ai/ha, applied to paddy water, rated after 13 to 15 days

Row | Structure (SMILES) | Barnyardgrass plant response rating (0 to 100 scale) ([1]; 500 g ai/ha) | Foxtail, Giant plant response rating (0 to 100 scale) ([2]; 500 g ai/ha) | Kochia plant response rating (0 to 100 scale) (kochia (Kochia scoparia) [3]; 500 g ai/ha) | Pigweed plant response rating (0 to 100 scale) ([4]; 500 g ai/ha) | Ryegrass, Italian plant response rating (0 to 100 scale) [6] | Barnyardgrass plant response rating ([7]; 125 g ai/ha) | Barnyardgrass plant response rating ([7]; 500 g ai/ha) | Blackgrass plant response rating ([8]; 125 g ai/ha) | Blackgrass plant response rating ([8]; 500 g ai/ha) | Corn plant response rating (corn (Zea mays); 125 g ai/ha) | Corn plant response rating (corn (Zea mays); 500 g ai/ha) | Foxtail, Giant plant response rating ([9]; 125 g ai/ha) | Foxtail, Giant plant response rating ([9]; 500 g ai/ha) | Galium plant response rating ([10]; 125 g ai/ha) | Galium plant response rating ([10]; 500 g ai/ha) | Kochia plant response rating (kochia (Kochia scoparia) [11]; 125 g ai/ha) | Kochia plant response rating (kochia (Kochia scoparia) [11]; 500 g ai/ha) | Pigweed plant response rating ([12]; 125 g ai/ha) | Pigweed plant response rating ([12]; 500 g ai/ha) | Ragweed plant response rating ([13]; 125 g ai/ha) | also measured
1 | CCOc1cc(OC)cc(C2CC(C)=[N+]([O-])C2C(=O)Nc2cccc(F)c2F)c1 (racemic) [Compound 116] | 90 | 90 | 0 | 0 | 80 | 50 | 80 | 80 | 80 | 30 | 60 | 60 | 90 | 0 | 20 | 0 | 20 | 0 | 0 | 0 | Barnyardgrass plant response rating (0 to 100 scale) ([1]; 125 g ai/ha): 80; Foxtail, Giant plant response rating (0 to 100 scale) ([2]; 125 g ai/ha): 90; Kochia plant response rating (0 to 100 scale) (kochia (Kochia scoparia) [3]; 125 g ai/ha): 0; Pigweed plant response rating (0 to 100 scale) ([4]; 125 g ai/ha): 0; Ragweed plant response rating (0 to 100 scale) ([5]; 125 g ai/ha): 0; Ragweed plant response rating (0 to 100 scale) ([5]; 500 g ai/ha): 0; Ragweed plant response rating ([13]; 500 g ai/ha): 0; Ryegrass, Italian plant response rating ([14]; 125 g ai/ha): 0; Ryegrass, Italian plant response rating ([14]; 500 g ai/ha): 80; Wheat plant response rating ([15]; 125 g ai/ha): 20; Wheat plant response rating ([15]; 500 g ai/ha): 70; Ducksalad plant response rating (0 to 100 scale) [16]: 0; Barnyardgrass plant response rating (0 to 100 scale) [17]: 0; Rice plant response rating (0 to 100 scale) (rice (Oryza sativa)): 0
2 | CC1=[N+]([O-])C(C(=O)Nc2cccc(F)c2F)C(c2cccc(Cl)c2C)C1 (racemic) [Compound 117] | 90 | 90 | 80 | 80 | 90 | 60 | 80 | 60 | 70 | 30 | 70 | 80 | 90 | 70 | 70 | 0 | 60 | 0 | 70 | 0 | Barnyardgrass plant response rating ([1]; 125 g ai/ha): 90; Foxtail, Giant plant response rating ([2]; 125 g ai/ha): 90; Kochia plant response rating (kochia (Kochia scoparia) [3]; 125 g ai/ha): 10; Pigweed plant response rating ([4]; 125 g ai/ha): 60; Ragweed plant response rating ([5]; 125 g ai/ha): 30; Ragweed plant response rating (0 to 100 scale) ([5]; 500 g ai/ha): 90; Ryegrass, Italian plant response rating [6]: 60; Ragweed plant response rating ([13]; 500 g ai/ha): 60; Ryegrass, Italian plant response rating ([14]; 125 g ai/ha): 30; Ryegrass, Italian plant response rating ([14]; 500 g ai/ha): 60; Wheat plant response rating ([15]; 125 g ai/ha): 20; Wheat plant response rating ([15]; 500 g ai/ha): 80; Ducksalad plant response rating (0 to 100 scale) [16]: 0; Barnyardgrass plant response rating (0 to 100 scale) [17]: 0; Rice plant response rating (0 to 100 scale) (rice (Oryza sativa)): 0
3 | CC1=[N+]([O-])C(C(=O)Nc2cccc(F)c2F)C(c2cccc3c2CCC3)C1 (racemic) [Compound 118] | 100 | 100 | 80 | 80 | 100 | 60 | 80 | 50 | 70 | 70 | 80 | 50 | 90 | 50 | 50 | 50 | 60 | 0 | 30 | 0 | Barnyardgrass plant response rating ([1]; 125 g ai/ha): 90; Foxtail, Giant plant response rating ([2]; 125 g ai/ha): 90; Kochia plant response rating (kochia (Kochia scoparia) [3]; 125 g ai/ha): 20; Pigweed plant response rating ([4]; 125 g ai/ha): 40; Ragweed plant response rating ([5]; 125 g ai/ha): 70; Ragweed plant response rating (0 to 100 scale) ([5]; 500 g ai/ha): 90; Ryegrass, Italian plant response rating [6]: 90; Ragweed plant response rating ([13]; 500 g ai/ha): 70; Ryegrass, Italian plant response rating ([14]; 125 g ai/ha): 50; Ryegrass, Italian plant response rating ([14]; 500 g ai/ha): 90; Wheat plant response rating ([15]; 125 g ai/ha): 40; Wheat plant response rating ([15]; 500 g ai/ha): 80; Ducksalad plant response rating (0 to 100 scale) [16]: 90; Barnyardgrass plant response rating (0 to 100 scale) [17]: 95; Rice plant response rating (0 to 100 scale) (rice (Oryza sativa)): 15
4 | CC1=[N+]([O-])C(C(=O)Nc2cccc(F)c2F)C(c2ccc(=O)n(Cc3ccc(Cl)cc3)c2)C1 (racemic) [Compound 119] | 0 | 0 | 0 | 0 | 0 | 0 | 0 | 0 | 0 | 0 | 0 | 0 | 0 | 0 | 0 | 0 | 0 | 0 | 0 | 0 | Barnyardgrass plant response rating ([1]; 125 g ai/ha): 0; Foxtail, Giant plant response rating ([2]; 125 g ai/ha): 0; Kochia plant response rating (kochia (Kochia scoparia) [3]; 125 g ai/ha): 0; Pigweed plant response rating ([4]; 125 g ai/ha): 0; Ragweed plant response rating ([5]; 125 g ai/ha): 0; Ryegrass, Italian plant response rating [6]: 0; Ragweed plant response rating ([13]; 500 g ai/ha): 0; Ryegrass, Italian plant response rating ([14]; 125 g ai/ha): 10; Ryegrass, Italian plant response rating ([14]; 500 g ai/ha): 20; Wheat plant response rating ([15]; 125 g ai/ha): 0; Wheat plant response rating ([15]; 500 g ai/ha): 0; Ducksalad plant response rating (0 to 100 scale) [16]: 0; Barnyardgrass plant response rating (0 to 100 scale) [17]: 0; Rice plant response rating (0 to 100 scale) (rice (Oryza sativa)): 0
5 | CCC1=[N+]([O-])C(C(=O)Nc2cccc(F)c2F)C(c2ccc(C(F)(F)F)cc2)C1 (racemic) [Compound 120] | 90 | 90 | 70 | 60 | 70 | 20 | 70 | 0 | 20 | 0 | 0 | 0 | 80 | 20 | 50 | 0 | 30 | 10 | 20 | 0 | Barnyardgrass plant response rating ([1]; 125 g ai/ha): 80; Foxtail, Giant plant response rating ([2]; 125 g ai/ha): 70; Kochia plant response rating (kochia (Kochia scoparia) [3]; 125 g ai/ha): 0; Pigweed plant response rating ([4]; 125 g ai/ha): 30; Ragweed plant response rating (0 to 100 scale) ([5]; 500 g ai/ha): 80; Ryegrass, Italian plant response rating [6]: 0; Ragweed plant response rating ([13]; 500 g ai/ha): 40; Ryegrass, Italian plant response rating ([14]; 125 g ai/ha): 0; Ryegrass, Italian plant response rating ([14]; 500 g ai/ha): 0; Wheat plant response rating ([15]; 125 g ai/ha): 0; Wheat plant response rating ([15]; 500 g ai/ha): 0; Ducksalad plant response rating (0 to 100 scale) [16]: 70; Barnyardgrass plant response rating (0 to 100 scale) [17]: 15; Rice plant response rating (0 to 100 scale) (rice (Oryza sativa)): 0
